According to patent US9475848B2 (priority 2012, dated 2016):
Several values for one entry are separate records, joined by “and”; a condition that tells them apart may be missing. Identical values can stand only once. Like-named read-outs stand apart in the source and are kept apart here.

What was measured:
[1] = tested on: pertussis toxin (PT) production; type: cell-based, Bordetella pertussis
B. pertussis [2] = type: cell-based, Bordetella pertussis
Bordetella pertussis = type: cell-based; conditions: for accumulation of bvg^− cells: MgSO4 20 mM (series C), niacin 0.604 g/L (series B) or both, compared with series A
B. pertussis [3] = tested on: B. pertussis
[4] = COQ255: niacin 0.604 g/L in first two pre-cultures, 0.004 g/L thereafter

SMILES: O=P([O-])(O)O.[K+] [KH2PO4]
- PT concentration at end of fermentation [1]: 19 mg/L and 13 mg/L
- Specific PT production at end of fermentation [1]: 2.0 mg L^−1 mg L^−1 OD650 nm^−1 and 1.4 mg L^−1 OD650 nm^−1
- decrease in PT production compared to COQ280 [1]: 32%
- Final biomass (OD650 nm) (B. pertussis [2]; COQ279: KH2PO4 0.8 g/L): 9.2 OD650 nm
- Final biomass (OD650 nm) (B. pertussis [2]; COQ280: KH2PO4 0.5 g/L): 9.7 OD650 nm

SMILES: N[C@@H](CS)C(=O)O [L-cysteine]
- PT concentration at end of fermentation [1]: 19 mg/L and 13 mg/L
- Specific PT production at end of fermentation [1]: 2.0 mg L^−1 mg L^−1 OD650 nm^−1 and 1.2 mg L^−1 OD650 nm^−1
- decrease in PT production compared to COQ280 [1]: 32%
- Final biomass (OD650 nm) (B. pertussis [2]; COQ280: L-cysteine 0.04 g/L): 9.7 OD650 nm
- Final biomass (OD650 nm) (B. pertussis [2]; COQ396: L-cysteine 0.2 g/L): 11.0 OD650 nm

SMILES: O=S(=O)([O-])[O-].[Mg+2] [MgSO4]
- accumulation of bvg^− cells (Bordetella pertussis): significantly lower accumulation of bvg^− cells
- Proportion of bvg^− cells (Bordetella pertussis; Series C: MgSO4 20 mM, niacin 0.004 g/L, end of fourth culture, start 1%): 2%
- Proportion of bvg^− cells (Bordetella pertussis; Series C: MgSO4 20 mM, niacin 0.004 g/L, end of third culture, start 1%): 3%

SMILES: O=C(O)c1cccnc1 [niacin]
- Final proportion of bvg^− in 20 L-fermentor (B. pertussis [3]): 13%
- Initial proportion of bvg^− in 20 L-fermentor (B. pertussis [3]): 3%
- PT concentration at end of fermentation [1]: 22.8 mg/L
- Specific PT production at end of fermentation [1]: 3.2 mg L^−1 OD650 nm^−1
- number of generations for which control of bvg^− take-over is effective (Bordetella pertussis): up to 100 generations
- accumulation of bvg^− cells (Bordetella pertussis): significantly lower accumulation of bvg^− cells
- Proportion of bvg^− cells (Bordetella pertussis; Series A: niacin 0.004 g/L, no MgSO4, end of fourth culture, start 1%): 8%
- Proportion of bvg^− cells (Bordetella pertussis; Series A: niacin 0.004 g/L, no MgSO4, end of third culture, start 1%): 5%
- Proportion of bvg^− cells (Bordetella pertussis; Series B: niacin 0.604 g/L, no MgSO4, end of fourth culture, start 1%): 2%
- Proportion of bvg^− cells (Bordetella pertussis; Series B: niacin 0.604 g/L, no MgSO4, end of third culture, start 1%): 1%
- Proportion of bvg^− cells (Bordetella pertussis; Table 4 Series A: niacin 0.004 g/L, end of first culture, start 6%): 9%
- Proportion of bvg^− cells (Bordetella pertussis; Table 4 Series A: niacin 0.004 g/L, end of second culture, start 6%): 14%
- Proportion of bvg^− cells (Bordetella pertussis; Table 4 Series A: niacin 0.004 g/L, end of third culture, start 6%): 24%
- Proportion of bvg^− cells (Bordetella pertussis; Table 4 Series B: niacin 0.021 g/L, end of first culture, start 6%): 9%
- Proportion of bvg^− cells (Bordetella pertussis; Table 4 Series B: niacin 0.021 g/L, end of second culture, start 6%): 15%
- Proportion of bvg^− cells (Bordetella pertussis; Table 4 Series B: niacin 0.021 g/L, end of third culture, start 6%): 19%
- Proportion of bvg^− cells (Bordetella pertussis; Table 4 Series C: niacin 0.113 g/L, end of first culture, start 6%): 10%
- Proportion of bvg^− cells (Bordetella pertussis; Table 4 Series C: niacin 0.113 g/L, end of second culture, start 6%): 14%
- Proportion of bvg^− cells (Bordetella pertussis; Table 4 Series C: niacin 0.113 g/L, end of third culture, start 6%): 21%
- Proportion of bvg^− cells (Bordetella pertussis; Table 4 Series D: niacin 0.604 g/L, end of first culture, start 6%): 5%
- Proportion of bvg^− cells (Bordetella pertussis; Table 4 Series D: niacin 0.604 g/L, end of second culture, start 6%): 5%
- Proportion of bvg^− cells (Bordetella pertussis; Table 4 Series D: niacin 0.604 g/L, end of third culture, start 6%): 4%
- controlling the take-over of bvg^− cells (Bordetella pertussis; low niacin concentrations): less effective
- control of the take-over of bvg^− cells (Bordetella pertussis; niacin 0.6 g/L rather than 0.004 g/L, independently of initial proportion of bvg− cells): effectively control the take-over of bvg^− cells
- bvg^− take-over (Bordetella pertussis; niacin 0.604 g/L, up to 15 generations): no bvg^− take-over was observed
- Final biomass (OD650 nm) (B. pertussis [2]; [4]): 7.2 OD650 nm
- Total fermentation time (B. pertussis [2]; [4]): 43 h

SMILES: O=C(O)[C@@H]1CCCN1 [proline]
- Final biomass (OD650 nm) (B. pertussis [2]; COQ278: proline 12 g/L, sodium glutamate 7 g/L, NaCl 0 g/L): 11.3 OD650nm
- Final biomass (OD650 nm) (B. pertussis [2]; COQ280: proline 1 g/L, sodium glutamate 20 g/L, NaCl 0 g/L): 9.7 OD650nm
